According to patent publication US20200360331A1, “COMPOSITIONS COMPRISING 15-HEPE AND/OR 15-HETrE AND METHODS OF TREATING OR PREVENTING CARDIOMETABOLIC DISEASE, METABOLIC SYNDROME, AND/OR RELATED DISEASES” (Afimmune Limited, priority 2019, published 2020):

Experiments:
BDL-operated mice = assay: BDL study: serum biochemistry (ALT, total bilirubin); format: in vivo, C57BL/6J mice; conditions: for Serum ALT / Serum Total Bilirubin: BDL mice
Description: BDL Surgery: On Day 0 of the study, BDL surgery was performed under pentobarbital (Kyoritsu Seiyaku, Japan) anesthesia. The mouse's hair was first shaved, the abdominal cavity cut open, and the common bile duct was ligated twice with 7-0 surgical silk. The mouse's peritoneum and the skin were closed with sutures, and the mice were transferred to a clean cage (e.g., resting cage) until recovered from anesthesia. Sham operated mice had their common bile duct exposed but not ligated.
Sample Collection: For serum samples, non-fasting blood was collected in serum separate tubes without anticoagulant through direct cardiac puncture and centrifuged at 3,500×g for 4 minutes at 4° C. The supernatant was collected and stored at −80° C. for biochemistry (30 μL) and shipping (all the remaining). For liver samples, left lateral lobe was collected and cut into 6 pieces. Two pieces of left lateral lobe were fixed in Bouin's solution and then embedded in paraffin. Samples were stored at room temperature for histological analysis. The other 2 pieces of left lateral lobe were embedded in O.C.T. compound and quick frozen in liquid nitrogen. Samples were stored at −80° C. The remaining pieces of left lateral lobe was snap frozen in liquid nitrogen and stored at −80° C. for gene expression analyses. Right medial lobe, left medial lobe, right lobe and caudate lobe were snap frozen in liquid nitrogen and stored at −80° C. for shipping.

[1] = tested on: TβR-III (type III TGF-β receptor, betaglycan); assay: Sucrose density gradient analysis in Mv1Lu cells, TβR-III; format: cell-based, mink; conditions: 100 μM, 0, 1, 4 and 24 hours
Description: Sucrose gradient ultracentrifugation and confocal microscopy were used to identify 15-HEPE induced microdomain translocation of TGF-β receptors by sucrose. Sucrose density gradient analysis of TGF-β receptors was conducted in the plasma membranes of Mv1Lu cells (mink lung epithelial cell) treated with 100 μM of 15-HEPE and an equal volume of DMSO (dimethyl sulfoxide) at 37° C. for 0, 1, 4, and 24 hours, and the cell lysates from these treated cells were subjected to sucrose density gradient ultracentrifugation. The sucrose gradient fractions were then analyzed by Western blot analysis using anti-TβR-I (type I TGF-β receptor), anti-TβR-II (type II TGF-β receptor), anti-TβR-III (type III TGF-β receptor, betaglycan), anti-EGFR (epidermal growth factor receptor), and anti-caveolin-1 antibodies. The lipid raft/caveolae, and non-lipid raft microdomain localization of TβR-I, TβR-II, TβR-III, EGFR and caveolin-1 in the plasma membrane of untreated cells or cells treated with 15-HEPE were assessed to determine the effects of 15-HEPE on the membrane microdomain localization of the TGF-β receptors. […]

NAFLD patients [2] = assay: Phase IIa NAFLD study: lipidomics; format: in vivo, human; conditions: 2 g
Source text: Exploratory analysis: The exploratory analysis included analysis of lipid and metabolic parameters including total cholesterol, triglycerides, very low-density lipoprotein cholesterol (VLDL-C), low density lipoprotein cholesterol (LDL-C), high density lipoprotein cholesterol (HDL-C), non-high-density lipoprotein cholesterol (non-HDL-C), remnant-like particle cholesterol (RLP-C), fasting glucose, insulin, free fatty acids and hemoglobin A1C (HbA1C). Additional exploratory analysis included high throughput lipidomics and proteomics. […] The study was planned to include 96 evaluable patients with 32 patients randomized per treatment group. […] Exploratory analysis: The exploratory analysis included analysis of lipid and metabolic parameters including total cholesterol, triglycerides, very low-density lipoprotein cholesterol (VLDL-C), low density lipoprotein cholesterol (LDL-C), high density lipoprotein cholesterol (HDL-C), non-high-density lipoprotein cholesterol (non-HDL-C), remnant-like particle cholesterol (RLP-C), fasting glucose, insulin, free fatty acids and hemoglobin A1C (HbA1C). Additional exploratory analysis included high throughput lipidomics and proteomics.

NAFLD patients [3] = assay: Phase IIa NAFLD study: safety (adverse events); format: in vivo, human
Source text: The study was planned to include 96 evaluable patients with 32 patients randomized per treatment group.
The intensity of an AE is an estimate of the relative severity of the event made by the Investigator based on his or her clinical experience. The following definitions were used to rate the severity of an AE: • Mild: The adverse event was transient and easily tolerated. • Moderate: The adverse event caused the patient discomfort and interrupted the patient's usual activities. • Severe: The adverse event caused considerable interference with the patient's usual activities and may have been incapacitating or life-threatening.
Causality of the AE to experimental treatment was also established by taking into account the patient's history, most recent physical examination findings, and concomitant medications. The following definitions were used to determine causality of an AE: • Not related: temporal relationship of the onset of the AE, relative to the experimental treatment was not reasonable or another cause could explain the occurrence of the AE. • Related: temporal relationship of the onset of the AE, relative to the experimental treatment was reasonable, followed a known response pattern to the treatment, and an alternative cause was unlikely.

[4] = 50 mg/kg PO QD Day 0-13, Day 14
[5] = 250 mg/kg PO QD Day 0-13, Day 14
[6] = 500 mg/kg PO QD Day 0-13, Day 14
[7] = BDL mice, 50, 250 and 500 mg/kg

With CC/C=C\CC(O)/C=C/C=C\C/C=C\C/C=C\CCCC(=O)O (centres unmarked) [DS102, 15-hydroxy-eicosa-5Z,8Z,11Z,13E,17Z-pentaenoic acid] the “Serum ALT” value (BDL-operated mice; [4]) was 402 ± 112 U/L, the “Serum Total Bilirubin” value (BDL-operated mice; [4]) was 26.8 ± 6.9 mg/dL and the “Serum ALT” value (BDL-operated mice; [5]) was 351 ± 155 U/L. For the same compound, the “Serum Total Bilirubin” value (BDL-operated mice; [5]) was 23.5 ± 9.8 mg/dL, the “Serum ALT” value (BDL-operated mice; [6]) was 383 ± 147 U/L and the “Serum Total Bilirubin” value (BDL-operated mice; [6]) was 26.2 ± 6.1 mg/dL. For the same compound, the “serum ALT level vs Vehicle group” value (BDL-operated mice; [7]) was “no significant differences”, the “serum total bilirubin level vs Vehicle group” value (BDL-operated mice; [7]) was “no significant differences” and the “localization and abundance of TβR-III” value [1] was “did not change the localization and abundance”. For the same compound, the “levels of multiple glycerophospholipid groups” value (NAFLD patients [2]) was “significantly increased”, the “levels of multiple hepatotoxic diglycerides” value (NAFLD patients [2]) was “significantly decreased” and the “Death, patients n” value (NAFLD patients [3]; 1 g DS102 (n = 32)) was 0. For the same compound, the “Patients with ≥1 AE related to study drug, %” value (NAFLD patients [3]; 1 g DS102 (n = 32)) was “(6.3) %”, the “Patients with ≥1 AE, %” value (NAFLD patients [3]; 1 g DS102 (n = 32)) was “(59.4) %” and the “Death, patients n” value (NAFLD patients [3]; 2 g DS102 (n = 30)) was 0. For the same compound, the “Patients with ≥1 AE related to study drug, %” value (NAFLD patients [3]; 2 g DS102 (n = 30)) was “(10.0) %”, the “Patients with ≥1 AE, %” value (NAFLD patients [3]; 2 g DS102 (n = 30)) was “(50.0) %” and the “Patients with ≥1 SAE, %” value (NAFLD patients [3]; 2 g DS102 (n = 30)) was “(3.3) %”. For the same compound, the “drug related serious adverse events (SAEs)” value (NAFLD patients [3]; NAFLD patients, 16 weeks) was “no drug related serious adverse events” and the “safety and tolerability compared to placebo” value (NAFLD patients [3]; NAFLD patients, 16 weeks) was “safe and well tolerated”.
